Tests used:
[1] = test system: number of explorations in the escape enclosure; experiment: Number of explorations in the escape enclosure (sedative properties); type: in vivo, mouse; conditions: po; mouse, escape enclosure, 100mg/kg/p.o.; read-out: Percentage diminution of number of explorations
[2] = Lethal doses / percentage mortality; type: in vivo; conditions: in vivo, mouse; for LD50: po, Table IX, read-out: DE 50 (second column; DL 50) (converted)
Description: As a result of a comparison between the pharmacologically active doses mentioned above, and the lethal doses listed in the following table XIV, the difference between the doses is sufficiently great to permit the utilisation of the derivatives of formula I in therapeutics.

[3] = test system: local oedema caused by sub-plantar injection of carraghenine; experiment: Sub-plantar oedema caused by carraghenine (antiinflammatory); type: in vivo, rat; conditions: rat, read-out: Percentage reduction of subplantar oedema; for inhibition in vivo at 100 mg/kg: 100 mg/kg/PO
Description: These properties are shown by a diminution of the local oedema caused by the sub-plantar injection of a phlogogenic agent, such as carraghenine, in the rat following the oral administration of derivatives of formula I.

Shay ulcers = experiment: Gastric ulcers provoked by tying of the pylorus (Shay ulcers); type: in vivo; conditions: intraduodenal; rat, 50mg/kg/i.d.; read-out: Percentage reduction of shay ulcers
Experimental: The derivatives of formula I, administered by oral means, reduce the extent of gastric ulcers provoked in a rat by tying of the pylorus (Shay ulcers)
Table IV indicated, by way of example, the results obtained by the administration of 50mg/kg/i.d. of different derivatives of formula I.

volume of urine emitted = experiment: Augmentation of urinary elimination (diuretic properties); type: in vivo; conditions: po; mouse, 25mg/kg/p.o., 6 hours; read-out: Percentage augmentation of urinary elimination
Experimental: The derivatives of formula I, administered by oral means to the mouse, simultaneously with a volume of 1ml of an isotonic solution of sodium chloride per 25g of the corporeal weight of the mouse, are capable of provoking an augmentation of the volume of urine emitted by reference to control animals, the volume being measured for 6 hours following administration.
The following Table VII indicates, by way of example the percentage augmentation of urinary elimination resulting from the administration of 25mg/kg/p.o. of different derivatives of formula I.

[4] = test system: arterial pressure of anaesthetised rat; experiment: Lowering of arterial pressure of anaesthetised rat (hypotensive properties); type: in vivo; conditions: 1 mg/kg/i.v.; for Duration of effect: hypotensive effect
Description: Administered by intraveinous means to an anaesthetised rat, the derivatives of formula I provoke a lowering of the arterial pressure.
By way of example, the following Table VIII mentions the results obtained by administration of different derivatives of formula I.

[5] = test system: painful stretchings caused by phenylbenzoquinone; experiment: Analgesic test with phenylbenzoquinone (painful stretchings); type: in vivo; conditions: Mus musculus, po; for ED50: read-out: 105 DE (DE 50)
[6] = test system: isolated heart of guinea-pig; experiment: Augmentation of flow of coronary vessels of isolated heart (vasodilatatory); conditions: Cavia porcellus; 1 μg/ml; read-out: Percentage augmentation of flow of isolated heart of guinea-pig
Experimental: The derivatives of formula I are capable of augmenting the flow of the coronary vessels of this isolated heart of a guinea - pig, when said derivatives are added in the perfusion liquid of said organ.
The percentage augmentation of the flow of the isolated heart of the guinea - pig by adding different derivatives of formula I to the perfusion liquid are given by way of example in the following Table V.

[7] = read-out: Percentage of diminution of the number of painful stretchings

| SMILES | mortality ([2]; 2000 mg/kg, 2 000 mg/kg/PO) | inhibition in vivo at 100 mg/kg [3] | change in vivo at 25 mg/kg (volume of urine emitted) | other results |
| --- | --- | --- | --- | --- |
| COc1cc(-c2nc(C)cc(Nc3ccccc3C(=O)OCC3COC(C)(C)O3)n2)cc(OC)c1OC (stereo not shown) [71 510] | 0% | 40% | – | inhibition in vivo at 100 mg/kg [1]: 40%; inhibition in vivo at 50 mg/kg (Shay ulcers): 35% |
| COc1cc(-c2nc(C)cc(Nc3ccc(C(=O)N4CCCC4)cc3)n2)cc(OC)c1OC [72 271, 2-(3',4',5'-trimethoxyphenyl)-4-(parapyrrolidinocarbonylphenylamino) -6-methyl pyrimidino] | 0% | 35% | – | inhibition in vivo at 100 mg/kg [1]: 40% |
| CCOC(=O)c1ccc(Nc2cc(C)nc(-c3ccc(Cl)cc3)n2)cc1 [72 283] | 0% | 40% | – | – |
| Cc1cc(Nc2ccc(C(=O)N3CCN(C)CC3)cc2)nc(-c2ccc(Cl)cc2)n1 [72 292] | 0% | – | 55% | – |
| COc1cc(-c2nc(C)cc(Nc3ccc(C(=O)N4CCCCC4)cc3)n2)cc(OC)c1OC [72 317] | 0% | 35% | – | inhibition in vivo at 50 mg/kg (Shay ulcers): 40% |
| Cc1cc(Nc2ccc(C(=O)N(C)C)cc2)nc(-c2ccc(Cl)cc2)n1 [72 327] | 0% | 35% | 85% | Percentage reduction of arterial pressure of anaesthetised rat [4]: 30%; Duration of effect [4]: 30 mn |
| COc1cc(-c2nc(C)cc(Nc3ccc(C(N)=O)cc3)n2)cc(OC)c1OC [72 417] | 0% | – | 65% | inhibition in vivo at 50 mg/kg (Shay ulcers): 40% |
| Cc1cc(Nc2ccc(C(N)=O)cc2)nc(-c2cccc(C(F)(F)F)c2)n1 [72 432] | 0% | 45% | 200% | inhibition in vivo at 100 mg/kg [1]: 35%; inhibition in vivo at 50 mg/kg (Shay ulcers): 35% |
| COc1cc(-c2nc(C)cc(Nc3ccccc3C(N)=O)n2)cc(OC)c1OC [72 442] | 0% | 55% | – | inhibition in vivo at 100 mg/kg [1]: 60%; Percentage reduction of arterial pressure of anaesthetised rat [4]: 30%; Duration of effect [4]: 20 mn; inhibition in vivo at 100 mg/kg [5, 7]: 70% |
| COc1cc(-c2nc(C)cc(Nc3ccc(C(=O)N4CCN(C)CC4)cc3)n2)cc(OC)c1OC [72 462] | 0% | 35% | – | inhibition in vivo at 100 mg/kg [5, 7]: 40% |
| Cc1cc(Nc2ccccc2C(=O)OCC2COC(C)(C)O2)nc(-c2cccc(C(F)(F)F)c2)n1 (stereo not shown) [72 495, N-[2-(3'trifluoromethylphenyl) -6-methyl-4-pyrimidyl](2",2" -dimethyldioxolan-4"-yl) methyl anthranilate] | 0% | – | 115% | – |
| CCOC(=O)c1ccc(Nc2cc(C)nc(-c3cccc(C(F)(F)F)c3)n2)cc1 [72 505] | 0% | – | – | activation at 1 µg/mL [6]: 50% |
| COc1cc(-c2nc(C)cc(Nc3ccc(C(=O)N4CCOCC4)cc3)n2)cc(OC)c1OC [72 536] | 0% | 35% | – | inhibition in vivo at 100 mg/kg [1]: 75% |
| Cc1cc(Nc2ccc(C(=O)N3CCOCC3)cc2)nc(-c2ccc3c(c2)OCO3)n1 [72 621] | ~30% | – | – | inhibition in vivo at 50 mg/kg (Shay ulcers): 40% |
| Cc1cc(Nc2ccc(C(=O)N3CCCC3)cc2)nc(-c2ccc3c(c2)OCO3)n1 [72 623] | 0% | – | 85% | – |
| Cc1cc(Nc2ccccc2C(=O)OCC(O)CO)nc(-c2ccc3c(c2)OCO3)n1 (stereo not shown) [72 686] | 0% | – | – | inhibition in vivo at 25 mg/kg ([3]; 25 mg/kg/PO): 35%; inhibition in vivo at 130 mg/kg [5, 7]: 50% |
| Cc1cc(Nc2ccc(C(=O)N3CCCCC3)cc2)nc(-c2ccc3c(c2)OCO3)n1 [72 687] | 0% | – | – | inhibition in vivo at 50 mg/kg (Shay ulcers): 40% |

| SMILES | mortality ([2]; 2000 mg/kg, 2 000 mg/kg/PO) | inhibition in vivo at 100 mg/kg [3] | change in vivo at 25 mg/kg (volume of urine emitted) | other results |
| --- | --- | --- | --- | --- |
| Cc1cc(Nc2ccccc2C(=O)OCC2COC(C)(C)O2)nc(-c2ccc3c(c2)OCO3)n1 (stereo not shown) [72 701] | 0% | – | 45% | inhibition in vivo at 100 mg/kg [5, 7]: 45% |
| Cc1cc(Nc2ccc(C(=O)N3CCOCC3)cc2)nc(-c2cccc(F)c2)n1 [72 754] | 0% | – | 50% | inhibition in vivo at 50 mg/kg (Shay ulcers): 40% |
| Cc1cc(Nc2ccc(C(N)=O)cc2)nc(-c2cccc(F)c2)n1 [72 773] | ~20% | 40% | 110% | inhibition in vivo at 100 mg/kg [1]: 45%; inhibition in vivo at 50 mg/kg (Shay ulcers): 40% |
| CCOC(=O)c1ccc(Nc2cc(C)nc(-c3cccc(F)c3)n2)cc1 [72 778] | 0% | – | – | inhibition in vivo at 100 mg/kg [1]: 35% |
| Cc1cc(Nc2ccccc2C(N)=O)nc(-c2cccc(F)c2)n1 [72 783] | 0% | – | 80% | – |
| Cc1cc(Nc2ccc(OCCN(C)C)cc2)nc(-c2ccccc2)n1 [730 136] | 0% | – | – | inhibition in vivo at 100 mg/kg [5, 7]: 46% |
| Cc1cc(Nc2ccc(OCCN3CCCCC3)cc2)nc(-c2ccccc2)n1 [730 221] | – | – | – | mortality ([2]; 520 mg/kg/PO): ~50% |
| Cc1cc(Nc2ccc(OCCN(C)C)cc2)nc(-c2cccc(F)c2)n1 [730 224] | 0% | – | – | LD50 [2]: > 2000 mg/kg; ED50 [5]: 30 mg/kg |
| Cc1cc(Nc2ccc(OCCN3CCCCC3)cc2)nc(-c2cccc(F)c2)n1 [730 231] | – | – | – | mortality ([2]; 975 mg/kg/PO): ~50%; LD50 [2]: 975 mg/kg; inhibition in vivo at 50 mg/kg (Shay ulcers): 50%; ED50 [5]: 27 mg/kg |
| Cc1cc(Nc2ccc(CC(=O)O)cc2)nc(-c2cccc(F)c2)n1 [730 234] | – | 35% | – | mortality ([2]; 2 400 mg/kg/PO): ~50%; inhibition in vivo at 100 mg/kg [5, 7]: 55% |
| Cc1cc(Nc2ccc(OCCN3CCCC3)cc2)nc(-c2cccc(C(F)(F)F)c2)n1 [730 243] | – | 50% | – | mortality ([2]; 1000 mg/kg, 1 000 mg/kg/PO): 0% |
| Cc1cc(Nc2ccc(OCCN3CCCCCC3)cc2)nc(-c2ccccc2)n1 [730 379] | – | – | – | mortality ([2]; 625 mg/kg/PO): ~50% |
| Cc1cc(Nc2ccc(OCCN3CCOCC3)cc2)nc(-c2cccc(Cl)c2)n1 [730 695] | 0% | – | 43% | inhibition in vivo at 100 mg/kg [5, 7]: 85% |
| Cc1cc(Nc2ccc(OCCN3CCOCC3)cc2)nc(-c2ccc3c(c2)OCO3)n1 [730 731] | 0% | – | 37% | LD50 [2]: > 2000 mg/kg; Percentage reduction of arterial pressure of anaesthetised rat [4]: 29%; Duration of effect [4]: 30 mn; ED50 [5]: 27 mg/kg |
| Cc1cc(Nc2ccc(OCCN3CCOCC3)cc2)nc(-c2ccc(Cl)cc2)n1 [730 732] | 0% | – | – | LD50 [2]: > 2000 mg/kg; ED50 [5]: 23 mg/kg |
| Cc1cc(Nc2ccc(OCCN3CCOCC3)cc2)nc(-c2ccc(N(C)C)cc2)n1 [740 140] | 0% | – | – | LD50 [2]: > 2000 mg/kg; Percentage reduction of arterial pressure of anaesthetised rat [4]: 40%; Duration of effect [4]: 30 mn; ED50 [5]: 33 mg/kg |

From US3978055A, “Arylamino pyrimidinic derivatives” (priority 1973, dated 1976)
